Experiments:
[1] = Estimation of plasma half-life; type: in vivo; conditions: rat, typically determined following intravenous administration, semilogarithmic plot, read-out: t½ (half life in plasma) (converted)
Source text: Estimation of Plasma Half-Life
The plasma half-life is the time taken for the concentration of compound in the plasma to decline to half of its original value. This is typically determined following intravenous administration of the test compound, followed by measurement of the compound concentrations in plasma samples as described above. The plasma half-life is estimated from a semilogarithmic plot, plotting the log of the plasma concentration (lnCp) against sample time (t, linear). The apparent first-order elimination rate constant, k, is equal to the slope of the line, and the elimination half-life (t1/2) is […] (Gibaldi, M and Perrier, D, 1975 Pharmacokinetics, Marcel Dekker, New York): [formula]

[2] = Plasma levels following oral administration to rats; type: in vivo; conditions: rat, oral gavage, normalised dose of 1 mg of compound per kilogram of rat body weight
Description: Measurement of Plasma Levels and Plasma Protein Binding Following Oral Administration to Rats
Planetary Milled compounds [15 mins, 500 rpm, 5 Zirconium Balls, in a Puluerisette 7 Mill (Glen Creston Ltd, Stanmore, Middlesex, UK)] were suspended in 0.5% HPMC Tween and dosed to High Fat Fed (Research Diets, D12451, ad lib feeding 14 days) Female Alderley Park Zucker or Alderley Park Wistar rats at rate of 5 mls/kg, at doses between 0.3 and 10 mg/kg by oral gavage.
Samples of plasma were obtained either by conscious blood sampling or terminal blood sampling as follows:
Conscious blood sampling (for compound level or blood chemistry)—Intravenous blood samples were taken from tail vein using 600 μL Starstedt Multivette (EDTA) and 22 G needle at the required time point. […]
The reconstituted samples were then analysed using high performance liquid chromatography with tandem mass spectrometry detection (HPLC-MS-MS)”. […]
The concentration of test samples was determined from the ratio of the peak height of the test sample to the peak height of the internal standard. The concentration of the test sample was calculated with reference to a standard curve relating the ratio to the concentration prepared by using known concentrations of test sample added to samples of rat plasma using (3-isopropoxy-5-benzyoxy-benzoyl)amino pyridine 3-carboxylic acid as an internal standard, treated as described above.

[3] = Plasma protein binding by equilibrium dialysis; type: in vitro ADME; conditions: rat, 18 hours at 37° C., plasma vs isotonic phosphate buffer pH 7.4, read-out: % free in plasma
Description: Measurements of Plasma Protein Binding of Compounds
The plasma protein binding of compounds was measured using the equilibrium dialysis technique (W. Lindner et al, J. Chromatography, 1996, 677, 1-28). Compound was dialysed at a concentration of 20 μM for 18 hours at 37° C. with plasma and isotonic phosphate buffer pH 7.4 (1 ml of each in the dialysis cell). A Spectrum® 20-cell equilibrium dialyser was used together with Teflon, semi-micro dialysis cells and Spectra/Por®2 membrane discs with a molecular weight cut off 12-14000 Dalton, 47 mm (supplied by PerBio Science UK Ltd, Tattenhall, Cheshire). Plasma and buffer samples are removed following dialysis and analysed using HPLCUV/MS (high performance liquid chromatography with UV and mass spec detection) to give the % free level in plasma.

[4] = molecular target: T1, glucokinase (GLK) (Homo sapiens, UniProt P35557); test: Enzymatic activity of GLK (G-6-P dehydrogenase, NADP/NADPH coupled assay), activation by compounds; type: biochemical; conditions: read-out: EC50 (activating activity for glucokinase)
T1 construct: 6-His (N); made in house; host or cells: E. coli BL21 (vector pTB375NBSE)
T1 sequence (P35557 1-466 isoform P35557-2): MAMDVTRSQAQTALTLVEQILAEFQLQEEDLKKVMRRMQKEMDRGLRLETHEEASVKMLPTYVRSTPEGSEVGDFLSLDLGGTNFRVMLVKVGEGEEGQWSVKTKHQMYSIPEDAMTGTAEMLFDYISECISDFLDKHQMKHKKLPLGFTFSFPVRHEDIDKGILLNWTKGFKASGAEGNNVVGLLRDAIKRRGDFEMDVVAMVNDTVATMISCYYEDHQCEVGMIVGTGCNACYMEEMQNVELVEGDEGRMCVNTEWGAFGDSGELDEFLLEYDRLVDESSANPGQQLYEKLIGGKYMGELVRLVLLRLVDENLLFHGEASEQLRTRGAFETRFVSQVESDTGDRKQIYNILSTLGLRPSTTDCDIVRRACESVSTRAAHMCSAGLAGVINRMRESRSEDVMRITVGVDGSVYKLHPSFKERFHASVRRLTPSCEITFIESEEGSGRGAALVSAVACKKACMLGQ
Description: (1) Enzymatic activity of GLK may be measured by incubating GLK, ATP and glucose. The rate of product formation may be determined by coupling the assay to a G-6-P dehydrogenase, NADP/NADPH system and measuring the linear increase in optical density at 340 nm (atschinsky et al 1993). Activation of GLK by compounds can be assessed using this assay in the presence or absence of GLKRP (GLK regulatory protein) as described in Brocklehurst et al (Diabetes 2004, 53, 535-541).
GLK was expressed from the vector pTB375NBSE in E.coli BL21 cells, producing a recombinant protein containing a 6-His tag immediately adjacent to the N-terminal methionine. Alternatively, another suitable vector is pET21(+)DNA, Novagen, Cat number 697703. The 6-His tag was used to allow purification of the recombinant protein on a column packed with nickel-nitrilotriacetic acid agarose purchased from Qiagen (cat no 30250).

- half-life [1]: 384 min
- fraction unbound at 18 h, 20 μM [3]: 0.0076
- EC50 [4]: 110 nM
SMILES: COC[C@H](C)Oc1cc(Oc2cccc(C)c2)cc(C(=O)Nc2ccc(C(=O)O)cn2)c1 [Example 1, 6-[3-{(1S)-1-methyl-2-methoxy-ethoxy}-5-{3-methylphenoxy}phenylcarbonylamino]pyridine-3-carboxylic acid]
- Peak Blood levels (including both bound and free) [2]: 2.06 µM

From patent US20070255062A1, “Benzoyl Amino Pyridyl Carboxylic Acid Derivatives Useful as Glucokinase (Glk) Activators” (priority 2003, published 2007)
